Assay results published in patent US5567728A, “Receptor ligands” (priority 1991, dated 1996).
Structures can show the parent of a compound that is named as a salt.

Experiments:
[1] = molecular target: T1, Human thyroid hormone receptor β1 (hThR β1) (Homo sapiens, UniProt P10828); assay: Binding experiments: displacement of 125I-T-3 from hThR β1; details: [hThRβ]=5.0×10^-11 M; [125I-T3]=2.0×10^-10 M; pH 7,5; incubated over night (16-20 hours); not above +4° C
T1 construct: made in house; host or cells: insect cells, recombinant baculovirus
T1 sequence (P10828 1-461): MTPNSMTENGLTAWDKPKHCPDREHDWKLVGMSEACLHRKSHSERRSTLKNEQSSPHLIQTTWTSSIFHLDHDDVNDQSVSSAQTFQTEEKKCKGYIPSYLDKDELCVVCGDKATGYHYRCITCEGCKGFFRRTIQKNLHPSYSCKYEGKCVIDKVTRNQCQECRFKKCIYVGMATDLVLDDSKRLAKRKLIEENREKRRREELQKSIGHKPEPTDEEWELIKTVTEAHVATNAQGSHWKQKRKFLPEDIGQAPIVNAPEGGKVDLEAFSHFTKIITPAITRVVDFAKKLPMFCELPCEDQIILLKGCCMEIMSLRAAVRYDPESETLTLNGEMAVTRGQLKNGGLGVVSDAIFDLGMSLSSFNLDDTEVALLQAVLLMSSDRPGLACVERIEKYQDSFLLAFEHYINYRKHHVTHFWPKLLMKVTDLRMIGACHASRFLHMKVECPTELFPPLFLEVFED
Experimental: Human thyroid hormone receptor β1 (hThR β1) was expressed in insect cells using a recombinant baculovirus (Barkhem T., et al. The Journal of Steroid Biochemistry and Molecular Biology: Vol 38, No 6 (1991) p 667).
Solutions of hThR β1 and of ^125 I-T-3 were made in E400 (K2 HPO4 =20 mM, KCl=400 mM, MgCl2 =l mM, EDTA=0,5 mM, monothioglycerol=6 mM, glycerol 8,7% (v/v), histones (type 11AS) 10 μg/ml pH=7,5). Histones and Monothioglycerol were purchased from Sigma (St. Louis, Mo., USA), the other compounds in E400 were from Merck (Darmstadt, BRD). […] Stock solutions of the compound (011) (20 mM) was made in 5% EtOH/1 mM NaOH.
For convenience the incubations were performed over night (16-20 hours).
The incubation was stopped by the loading of 180 μl incubation mixture on a Quik-Sep Sephadex G-25 column (#9041-35-4 ISOLAB, Akron, Ohio, USA). The peak of protein-bound 125 I-T-3 was eluted with 1 ml E400 and collected in a test tube (passage of free T-3 through column is delayed). The eluted radioactivity was measured in a gamma-counter.
All incubations and dilutions were made in polypropylene tubes. Great care was taken to avoid exposure of hThR β1 to temperatures above +4° C.
(DeLean, A., et al, Am. J. Physiol. 235: E97-E102. (1978)).
The calculations were performed in KaleidaGraph™ 2.0.2 (Adelbeck Software) on a Macintosh IIcx computer.
Experiments conducted with [hThRβ]=5.0×10^-11 M and with [^125 I-T3 ]=2.0×10^-10 M

[2] = system: T-3 receptor; assay: biological assay, such as the method of Westerfield et al. (T-3 receptor antagonism); details: "can be shown" by a biological assay such as Westerfield et al.; no data given
[3] = system: coronary vessels of the heart of the rabbit; details: cited from earlier work
[4] = system: isolated intestine of the guinea-pig; details: cited from earlier work
[5] = system: rat growth hormone (rGH) mRNA levels in cultured rat pituitary cells; details: dose dependent; cited from earlier work

SMILES | IC50 [1] | T-3 receptor antagonism [2] | dilatory effects on coronary vessels [3] | spasmolytic activity [4] | inhibition of T-3 induced increase in rGH mRNA levels [5]
CCN(CC)CCOc1c(I)cc(C(=O)c2c(C)oc3ccccc23)cc1I [(003), 2-methyl-3-(3,5-diiodo-4-(2-N,N-diethylaminoethoxy)-benzoyl)-benzofuran hydrochloride] | 10 µM | T-3 receptor antagonists | – | – | –
Cc1oc2ccccc2c1C(=O)c1cc(I)c(O)c(I)c1 [(011), 2-methyl-3-(3,5-diiodo-4-hydroxy-benzoyl)benzofuran] | 2.5 µM | T-3 receptor antagonists | some dilatory effects on the coronary vessels | spasmolytic activity | –
Oc1ccc(Cc2cc(I)c(O)c(I)c2)cc1I [(032), 4', 4-dihydroxy-3'3,5-triiodo-diphenylmethan] | 0.42 µM | T-3 receptor antagonists | – | – | –
CCCCc1oc2ccccc2c1C(=O)c1cc(I)c(OCCN(CC)CC)c(I)c1 [Amiodarone] | – | – | – | – | inhibit T-3 induced increase in rat growth hormone (rGH) mRNA levels
CCCCc1oc2ccccc2c1C(=O)c1cc(I)c(OCC(=O)O)c(I)c1 [(005), 2-n-butyl-3-(3,5-diiodo-4-carboxymethoxy-benzoyl)benzofuran] | 4 µM | T-3 receptor antagonists | – | – | –
CN(C)CCOc1c(I)cc(C(=O)c2ccc(O)c(I)c2)cc1I [(024), 4'-hydroxy-3'-iodo-3,5-diiodo-4-(2-N,N-dimethylaminoethoxy))benzophenon hydrochloride] | 11 µM | T-3 receptor antagonists | – | – | –
Cc1oc2ccccc2c1Cc1cc(I)c(OCC(=O)O)c(I)c1 [(015), 2-methyl-3-(3,5-diiodo-4-carboxymethoxybenzyl)benzofuran] | 8 µM | T-3 receptor antagonists | – | – | –
CCCCc1oc2ccccc2c1C(=O)c1ccc(O)c(I)c1 [(029), 2-butyl-3-(3-iodo-4-hydroxybenzoyl)benzofuran] | 3.2 µM | T-3 receptor antagonists | – | – | –
CCCCc1oc2ccccc2c1C(O)c1cc(I)c(OCCN(CC)CC)c(I)c1 (stereo not shown) [(001), 3,5-diiodo-4-(2-N,N-diethylaminoethoxy)phenyl-(2-butyl-benzofur-3-yl)methanol hydrochloride] | 3.6 µM | T-3 receptor antagonists | – | – | –
